Laboratory results as given in patent US20230026856A1, “HETEROCYCLIC COMPOUNDS AND METHODS OF USE THEREOF” (SPARCBIO LLC, priority 2020, published 2023).

Each molecule was assayed against KRAS G12C protein (Homo sapiens, UniProt P01116, G12C) (assay: Nucleotide exchange assay, Method III (TR-FRET, association of KRAS G12C with Raf-RBD, SOS1-mediated exchange)). Conditions: overnight (18 hr) incubation with GDP-bound KRAS G12C.
Chain of KRAS G12C protein (P01116 1-188 isoform P01116-2 G12C): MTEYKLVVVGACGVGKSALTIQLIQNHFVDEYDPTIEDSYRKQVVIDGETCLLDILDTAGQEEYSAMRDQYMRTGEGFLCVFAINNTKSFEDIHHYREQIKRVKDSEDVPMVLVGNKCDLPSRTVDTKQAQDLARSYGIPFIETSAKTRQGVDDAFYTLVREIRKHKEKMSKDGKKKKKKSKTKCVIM
Assay type: biochemical
Description: Method III. Inhibition of SOS1-mediated exchange of GDP for GTP on the KRAS G12C protein was measured in a biochemical assay that monitors association of KRAS G12C protein with the Ras-binding domain of Raf (Raf-RBD), where the association is coupled to exchange of GDP to GTP on the KRAS G12C protein. The assay was performed at WuXi AppTec (Shanghai, China). Compounds were serially diluted in 3-fold dilutions to 11 concentrations and spotted into the wells of an assay plate in a total volume of 150 nL DMSO per well. A 2× enzyme mix was prepared by diluting GDP-bound, His-tagged KRAS G12C to 25 nM in assay buffer. 10 μL/well of 2× enzyme mix was added to all wells, and the plate was sealed and incubated overnight (18 hr) at 23° C. 4×SOS1/GDP and 4×SOS1/GTP were prepared in assay buffer. 5 μL/well of 4×SOS1/GDP mix was added to negative control wells, 5 μL/well of 4×SOS1/GTP mix was added to the remaining wells, and the plate was further incubated at 23° C. for 1 hr. Finally, FLAG-tagged Raf-RBD is added to the reaction mixture along with a pair of FRET donor- and acceptor-conjugated antibodies specific for the FLAG-tagged Raf-RBD and His-tagged KRAS G12C proteins. A 4× Raf-RBD/Tb-anti-FLAG/D2-anti-His mix was prepared in assay buffer, and 5 μL/well of the mix was added to all wells, followed by incubation at room temperature for 2 hr. The TR-FRET signals, which increase with association of KRAS G12C and Raf-RBD, were measured on a Perkin Elmer Envision 2104 plate reader, and data were analyzed by non-linear regression to obtain IC50 values for inhibition by compounds. Table 2 includes results of the assay of Method III. ‘+++’ indicates IC50 values ≤300 nM, ‘++’ indicates IC50 values between 300 nM-3 μM, and ‘+’ indicates IC50 values ≥3 μM.
In the case of `C=CC(=O)N1CCC(n2c(=O)c(=O)n(-c3c(C)ccnc3C(C)C)c3nc(-c4c(O)cccc4F)c(F)cc32)C(C)C1` (single isomer, unassigned) [294 (Isomer F), 1-(1-acryloyl-3-methylpiperidin-4-yl)-7-fluoro-6-(2-fluoro-6-hydroxyphenyl)-4-(2-isopropyl-4-methylpyridin-3-yl)-1,4-dihydropyrido[2,3-b]pyrazine-2,3-dione], the IC50 is reported as 0.3 to 3 µM.
For `C=CC(=O)N1CCC(c2c(C(=O)NC)c(=O)n(-c3c(C)ccnc3C(C)C)c3nc(-c4c(O)cccc4F)c(F)cc23)CC1` (single isomer, unassigned) [68 (Isomer A), 4-(1-acryloylpiperidin-4-yl)-6-fluoro-7-(2-fluoro-6-hydroxyphenyl)-1-(2-isopropyl-4-methylpyridin-3-yl)-N-methyl-2-oxo-1,2-dihydro-1,8-naphthyridine-3-carboxamide], the IC50 was 0.3 to 3 µM.
`C=CC(=O)N1CCC(n2c(=O)c(=O)n(-c3c(C)ccnc3C(C)C)c3nc(-c4c(O)cccc4F)c(F)cc32)C[C@@H]1C` (single isomer, unassigned) [4 (Isomer B)] was tested, and the IC50 was no less than 3 µM.
`C=CC(=O)N1CCN(c2c(S(C)(=O)=O)c(=O)n(-c3c(C)ccnc3C(C)C)c3c(F)c(-c4c(O)cccc4F)c(Cl)cc23)CC1` (single isomer, unassigned) [176 (Isomer B), 4-(4-acryloylpiperazin-1-yl)-6-chloro-8-fluoro-7-(2-fluoro-6-hydroxyphenyl)-1-(2-isopropyl-4-methylpyridin-3-yl)-3-(methylsulfonyl)quinolin-2(1H)-one] was tested, and the IC50 was no more than 0.3 µM.
`C=CC(=O)N1CCC(n2c(=O)c(=O)n(-c3c(C)ccnc3C(C)C)c3nc(-c4c(O)cccc4F)c(F)cc32)C[C@H]1C` (single isomer, unassigned) [2 (Isomer A)] was tested, and the IC50 was no less than 3 µM.
With `C=CC(=O)N1CCN(c2c(S(C)(=O)=O)c(=O)n(-c3c(C)ccnc3C(C)C)c3c(F)c(-c4c(C)ccc5[nH]ncc45)c(Cl)cc23)CC1` (single isomer, unassigned) [187 (Isomer A), 4-(4-acryloylpiperazin-1-yl)-6-chloro-8-fluoro-1-(2-isopropyl-4-methylpyridin-3-yl)-7-(5-methyl-1H-indazol-4-yl)-3-(methylsulfonyl)quinolin-2(1H)-one] the IC50 was 0.3 to 3 µM.
Molecule `C=CC(=O)N1CCN(c2c(C(=O)NC)c(=O)n(-c3c(C)ccnc3C(C)C)c3nc(-c4c(O)cccc4F)c(F)cc23)[C@@H](C)C1` (single isomer, unassigned) [76 (Isomer B)] has an IC50 of no less than 3 µM.
For `C=CC(=O)N1CCN(c2c(S(C)(=O)=O)c(=O)n(-c3c(C)ccnc3C(C)C)c3c(F)c(-c4cccc5sc(N)nc45)c(Cl)cc23)CC1` (single isomer, unassigned) [252 (Isomer C), 4-(4-acryloylpiperazin-1-yl)-7-(2-aminobenzo[d]thiazol-4-yl)-6-chloro-8-fluoro-1-(2-isopropyl-4-methylpyridin-3-yl)-3-(methylsulfonyl)quinolin-2(1H)-one], the IC50 was 0.3 to 3 µM.
`C=CC(=O)N1CCN(c2c(S(C)(=O)=O)c(=O)n(-c3c(C)ccnc3C(C)C)c3nc(-c4c(O)cccc4F)c(F)cc23)CC1` (single isomer, unassigned) [123 (Isomer B), 4-(4-acryloylpiperazin-1-yl)-6-fluoro-7-(2-fluoro-6-hydroxyphenyl)-1-(2-isopropyl-4-methylpyridin-3-yl)-3-(methylsulfonyl)-1,8-naphthyridin-2(1H)-one] gave an IC50 of 0.3 to 3 µM.
For `C=CC(=O)N1CCN(c2c(S(C)(=O)=O)c(=O)n(-c3c(C)ccnc3C(C)C)c3nc(-c4c(O)cccc4F)c(F)cc23)C[C@@H]1CC#N` (single isomer, unassigned) [135 (Isomer A)], the IC50 was no less than 3 µM.
In the case of `C=CC(=O)N1CCN(c2c(S(C)(=O)=O)c(=O)n(-c3c(C)ccnc3C(C)C)c3c(F)c(-c4c(O)cccc4F)c(Cl)cc23)CC1` (single isomer, unassigned) [176 (Isomer A), 4-(4-acryloylpiperazin-1-yl)-6-chloro-8-fluoro-7-(2-fluoro-6-hydroxyphenyl)-1-(2-isopropyl-4-methylpyridin-3-yl)-3-(methylsulfonyl)quinolin-2(1H)-one], the IC50 is reported as no less than 3 µM.
`C=CC(=O)N1CCN(c2c(S(C)(=O)=O)c(=O)n(-c3c(C)ccnc3C(C)C)c3nc(-c4cccc5sc(N)nc45)c(F)cc23)CC1` (single isomer, unassigned) [250 (Isomer B), 4-(4-acryloylpiperazin-1-yl)-7-(2-aminobenzo[d]thiazol-4-yl)-6-fluoro-1-(2-isopropyl-4-methylpyridin-3-yl)-3-(methylsulfonyl)-1,8-naphthyridin-2(1H)-one] was tested, and the IC50 was 0.3 to 3 µM.
Molecule `C=CC(=O)N1CCN(c2c(S(C)(=O)=O)c(=O)n(-c3c(C)ccnc3C(C)C)c3c(F)c(-c4c(C)ccc5[nH]ncc45)c(Cl)cc23)CC1` (single isomer, unassigned) [187 (Isomer D), 4-(4-acryloylpiperazin-1-yl)-6-chloro-8-fluoro-1-(2-isopropyl-4-methylpyridin-3-yl)-7-(5-methyl-1H-indazol-4-yl)-3-(methylsulfonyl)quinolin-2(1H)-one] has an IC50 of no less than 3 µM.
For `C=CC(=O)N1CCN(c2c(S(C)(=O)=O)c(=O)n(-c3c(C)ccnc3C(C)C)c3c(F)c(-c4c(C)ccc5[nH]ncc45)c(Cl)cc23)CC1` (single isomer, unassigned) [187 (Isomer B), 4-(4-acryloylpiperazin-1-yl)-6-chloro-8-fluoro-1-(2-isopropyl-4-methylpyridin-3-yl)-7-(5-methyl-1H-indazol-4-yl)-3-(methylsulfonyl)quinolin-2(1H)-one], the IC50 was no more than 0.3 µM.
Work on `C=CC(=O)N1CCN(c2c(C(=O)NC)c(=O)n(-c3c(C)ccnc3C(C)C)c3nc(-c4c(O)cccc4F)c(F)cc23)C[C@@H]1CC#N` (single isomer, unassigned) [80 (Isomer B)] yielded an IC50 of 0.3 to 3 µM.
`C=CC(=O)N1CCN(c2c(S(C)(=O)=O)c(=O)n(-c3c(C)ccnc3C(C)C)c3c(F)c(-c4cccc5sc(N)nc45)c(Cl)cc23)CC1` (single isomer, unassigned) [252 (Isomer B), 4-(4-acryloylpiperazin-1-yl)-7-(2-aminobenzo[d]thiazol-4-yl)-6-chloro-8-fluoro-1-(2-isopropyl-4-methylpyridin-3-yl)-3-(methylsulfonyl)quinolin-2(1H)-one] gave an IC50 of no more than 0.3 µM.
Work on `C=CC(=O)N1CCN(c2c(S(C)(=O)=O)c(=O)n(-c3c(C)ccnc3C(C)C)c3nc(-c4cccc5sc(N)nc45)c(F)cc23)C[C@H]1C` (single isomer, unassigned) [249 (Isomer B)] yielded an IC50 of 0.3 to 3 µM.
`C=CC(=O)N1CCC(n2c(=O)c(=O)n(-c3c(C)ccnc3C(C)C)c3nc(-c4c(O)cccc4F)c(F)cc32)C(C)C1` (single isomer, unassigned) [294 (Isomer A), 1-(1-acryloyl-3-methylpiperidin-4-yl)-7-fluoro-6-(2-fluoro-6-hydroxyphenyl)-4-(2-isopropyl-4-methylpyridin-3-yl)-1,4-dihydropyrido[2,3-b]pyrazine-2,3-dione] showed an IC50 of no less than 3 µM.
In the case of `C=CC(=O)N1CCN(c2c(S(C)(=O)=O)c(=O)n(-c3c(C)ccnc3C(C)C)c3nc(-c4c(C)ccc5[nH]ncc45)c(F)cc23)CC1` (single isomer, unassigned) [124 (Isomer B), 4-(4-acryloylpiperazin-1-yl)-6-fluoro-1-(2-isopropyl-4-methylpyridin-3-yl)-7-(5-methyl-1H-indazol-4-yl)-3-(methylsulfonyl)-1,8-naphthyridin-2(1H)-one], the IC50 is reported as no less than 3 µM.
For `C=CC(=O)N1CCN(c2c(C(=O)NC)c(=O)n(-c3c(C)ccnc3C(C)C)c3nc(-c4cccc5sc(N)nc45)c(F)cc23)CC1` (single isomer, unassigned) [254 (Isomer B), 4-(4-acryloylpiperazin-1-yl)-7-(2-aminobenzo[d]thiazol-4-yl)-6-fluoro-1-(2-isopropyl-4-methylpyridin-3-yl)-N-methyl-2-oxo-1,2-dihydro-1,8-naphthyridine-3-carboxamide], the IC50 was no more than 0.3 µM.
In the case of `C=CC(=O)N1CCN(c2c(C(=O)NC)c(=O)n(-c3c(C)ccnc3C(C)C)c3nc(-c4c(C)ccc5[nH]ncc45)c(F)cc23)C[C@H]1C` (single isomer, unassigned) [114 (Isomer B)], the IC50 is reported as no more than 0.3 µM.
`C=CC(=O)N1CCN(c2c(S(C)(=O)=O)c(=O)n(-c3c(C)ccnc3C(C)C)c3c(F)c(-c4cccc5sc(N)nc45)c(Cl)cc23)CC1` (single isomer, unassigned) [252 (Isomer A), 4-(4-acryloylpiperazin-1-yl)-7-(2-aminobenzo[d]thiazol-4-yl)-6-chloro-8-fluoro-1-(2-isopropyl-4-methylpyridin-3-yl)-3-(methylsulfonyl)quinolin-2(1H)-one] showed an IC50 of no more than 0.3 µM.
For `C=CC(=O)N1CCN(c2c(S(C)(=O)=O)c(=O)n(-c3c(C)ccnc3C(C)C)c3nc(-c4c(O)cccc4F)c(F)cc23)[C@@H](C)C1` (single isomer, unassigned) [131 (Isomer B)], the IC50 was no less than 3 µM.
`C=CC(=O)N1CCN(c2c(S(C)(=O)=O)c(=O)n(-c3c(C)ccnc3C(C)C)c3nc(-c4c(O)cccc4F)c(F)cc23)C[C@H]1C` (single isomer, unassigned) [143 (Isomer A)] gave an IC50 of 0.3 to 3 µM.
